Values of other authors as cited in the CATMoS acute toxicity set (Mansouri et al. 2021).
Values joined by “and” are separate entries in the source; they are usually repeats but may differ in a detail not shown here. Equal values may be shown once.

Assay: rat acute oral toxicity
Conditions: in vivo

Structure (SMILES) | LD50
CCN(CC)CCCN(c1ccccc1)C1Cc2ccccc2C1 | 525 mg/kg
OCCC(O)Cl (stereo not given) | 110 mg/kg
CC(C)CCCCCc1ccc(O)cc1 | 2150 mg/kg
CCN(CC)N=Nc1cccnc1 | 210 mg/kg
COc1ccc2c(c1)OC(C)(C)[C@H](c1ccccc1)[C@H]2c1ccc(OCCBr)cc1 | 500 mg/kg
Nc1ncc(C=Cc2ccc([N+](=O)[O-])o2)nn1 | 250 mg/kg
COP(=S)(OC)SCn1nc(Cl)ccc1=O | 5 mg/kg
CCOC(=O)C1(c2ccccc2)CCN(CCC(C#N)(c2ccccc2)c2ccccc2)CC1 | 221 mg/kg
CCOP(=S)(OCC)SC1CCOC1=O (stereo not given) | 1000 mg/kg
COC(C)CCOC(C)=O (stereo not given) | 4210 mg/kg
COCCOC(=O)C1=C(C)NC(C)=C(C(=O)OC(C)C)C1c1cccc([N+](=O)[O-])c1 (stereo not given) | 2740 mg/kg
Nc1ccc(Oc2ccc(S(=O)(=O)c3ccc(Oc4ccc(N)cc4)cc3)cc2)cc1 | 220 mg/kg
C[C@H]1CC[C@@H]2[C@@H](C)[C@H]3[C@H](C[C@H]4[C@@H]5CC=C6CC(O[C@@H]7O[C@H](CO)[C@H](O)[C@H](O[C@@H]8O[C@H](CO)[C@@H](O)[C@H](O)[C@H]8O)[C@H]7O[C@H]7O[C@@H](C)[C@H](O)[C@@H](O)[C@H]7O)CC[C@]6(C)[C@H]5CC[C@]34C)N2C1 (stereo not given in full) | 590 mg/kg
C/C=C/C(=O)OCC | 3000 mg/kg
COP(=S)(OC)SCN1C(=O)CCC1=O | 7 mg/kg
FC(F)(F)c1ccc(Cl)c(Cl)c1 | 1150 mg/kg
CC(=O)N1N=C(c2ccc(N)cc2)c2cc3c(cc2CC1C)OCO3 (stereo not given) | 200 mg/kg
CC(C)COC(=O)COc1ccc(Cl)cc1Cl | 300 mg/kg
CN(CCO)c1ccccc1 | 2830 mg/kg
CC(=O)Nc1ccccc1 | 800 mg/kg
CC(C)NCC(O)COc1ccccc1C1CCCCC1 (stereo not given) | 1850 mg/kg
COP(=O)(OC)SC | 15 mg/kg
COC(=O)CC(SP(=O)(OC)OC)C(=O)OC (stereo not given) | 103 mg/kg
CCOP(=O)(OCC)OC(=C(Cl)Cl)c1cc(Cl)cc(Cl)c1 | 20 mg/kg

Structure (SMILES) | LD50
C1CCCC1 | 11400 mg/kg
Cc1[nH]c(=O)c(C#N)cc1-c1ccncc1 | 91 mg/kg
CC(=O)OC1=C(c2c(C)cc(C)cc2C)C(=O)c2ccccc21 | 8000 mg/kg
CCOC(=O)Cc1cccc2ccccc12 | 3580 mg/kg
COc1ccc(C=O)cc1 | 1510 mg/kg
CCC(=O)Nc1cccc(OC(=O)NC)c1 | 1000 mg/kg
COc1ccc2c(c1OC)C(=O)O[C@@H]2[C@H]1c2c(cc3c(c2OC)OCO3)CCN1C | 1520 mg/kg
CC(=C(CCO)SSCC1CCCO1)N(C=O)Cc1cnc(C)nc1N (stereo not given) | 2200 mg/kg
C[C@H]1O[C@H](O[C@H]2[C@H](O)[C@@H](O)[C@@H](O)[C@H](O)[C@@H]2O)[C@@H](N)C[C@@H]1NC(=N)C(=O)O | 22000 mg/kg and 11400 mg/kg
COc1cc(C)nc(-n2nc(C)cc2OC)n1 | 445 mg/kg
CN(C)c1ccc(N=Nc2ccccc2)cc1 | 200 mg/kg
OC(Nc1nccs1)C(Cl)(Cl)Cl (stereo not given) | 2500 mg/kg
CN(C)C=Nc1c(I)cc(I)c(CCC(=O)O)c1I | 2500 mg/kg and 1030 mg/kg
CC(C(=O)O)c1ccc2c(c1)[nH]c1ccc(Cl)cc12 (stereo not given) | 74 mg/kg
CC(C)(C)NCC(O)c1cc(Cl)c(N)c(Cl)c1 (stereo not given) | 159 mg/kg
C=CCN(CC=C)c1ccc(OC(=O)NC)cc1 | 86.8 mg/kg
NCc1cccc(CN)c1 | 930 mg/kg
COc1ccc2c(c1)OC(C)(C)C(c1ccccc1)=C2c1ccc(OCCN2CCCC2)cc1 | 150 mg/kg
CCN(CC)CCNC(=O)c1cc(Br)c(N)cc1OC | 545 mg/kg
COc1nc(C)nc(NC(=O)NS(=O)(=O)c2ccccc2CCC(F)(F)F)n1 | 986 mg/kg
CNC(=O)Oc1cc(C(C)(C)C)cc(C(C)(C)C)c1 | 1800 mg/kg
O=C(O)CCC(=O)OCC1COC(C(Cl)(Cl)Cl)O1 (stereo not given) | 3400 mg/kg
CC(C(=O)Nc1cc(-c2ccccc2)nn1-c1ccccc1)N(C)C (stereo not given) | 815 mg/kg
BrCC=CCBr | 75 mg/kg

Structure (SMILES) | LD50
CN(C)c1ccc(C(=C2C=CC(=[N+](C)C)C=C2)c2ccc(N(C)C)cc2)cc1 | 420 mg/kg
Cc1ccc(S(=O)(=O)NC(=O)NC2C3CCC(C)(C2O)C3(C)C)cc1 (stereo not given) | 18000 mg/kg
CCOC(=O)CN1CCN(C(=O)C=Cc2cc(OC)c(OC)c(OC)c2)CC1 | 4190 mg/kg
Fc1cc(Cl)c2nc(C(F)(F)F)[nH]c2c1 | 1.98 mg/kg
CN(C)S(=O)(=O)CCNC(=O)N(CCCl)N=O | 39 mg/kg
Cc1cccc(C)c1NC1=NCCCS1 | 130 mg/kg
CN(C)C(=O)Oc1c(Cl)c(Cl)cc2[nH]c(C(F)(F)F)nc12 | 41 mg/kg
FC(F)(F)c1nc2ccc(Br)cc2[nH]1 | 49 mg/kg
CCOC(=O)C(C)Oc1ccc(Oc2nc3ccc(Cl)cc3s2)cc1 (stereo not given) | 907 mg/kg
CCN(CC)CCO | 1300 mg/kg
CCCCCOC(CBr)c1ccc(C2CCCC2)cc1 (stereo not given) | 250 mg/kg
ClCCBr | 64 mg/kg
CCCCCCCCCCCCCCCC(=O)OCC(=O)[C@@]1(O)[C@H](C)C[C@H]2[C@@H]3CCC4=CC(=O)C=C[C@]4(C)[C@@]3(F)[C@@H](O)C[C@@]21C | 315 mg/kg
Clc1cc(Cl)c(Cl)c(Cl)c1 | 1730 mg/kg
O=C(/C=C/C=C/c1ccc2c(c1)OCO2)N1CCCCC1 | 514 mg/kg
C=CC(=O)OCCCCOC(=O)C=C | 587 mg/kg
[O-][n+]1c2ccccc2nc2ccccc21 | 6600 mg/kg
CC1=CC(=O)NS(=O)(=O)O1 | 7430 mg/kg
CC(C)(Oc1ccc(CCNC(=O)c2ccc(Cl)cc2)cc1)C(=O)O | 1080 mg/kg
Cc1ccc(N=C=O)cc1 | 1600 mg/kg
C=CCN1CCCC1=Nc1ccc(Cl)c(Cl)c1 | 1850 mg/kg
CCCCCC(=O)NO | 3200 mg/kg
COC(=O)c1c(Cl)c(Cl)c(C(=O)N(C)OC)c(Cl)c1Cl | 1170 mg/kg
CCOP(=O)(OCC)OC(=C(Cl)Cl)c1ccc(Cl)cc1Cl | 30.2 mg/kg

Structure (SMILES) | LD50
CC(=O)N[C@@H](CC(C)C)C(=O)N[C@@H](CC(C)C)C(=O)N[C@H](C=O)CCCNC(=N)N | 720 mg/kg
Clc1cccc2c1Oc1c(Cl)c(Cl)c(Cl)c(Cl)c1O2 | 0.206 mg/kg
CCOP(=S)(OCC)Oc1ccc(Cl)c([N+](=O)[O-])c1 | 100 mg/kg
COP(=O)(OC)Oc1ccc([N+](=O)[O-])c(C)c1 | 24 mg/kg
BrC12CC3CC(CC(C3)C1)C2 | 8470 mg/kg
CCCP(=O)(CCC)CCC | 1410 mg/kg
BrC=CBr | 117 mg/kg and 62 mg/kg
NC1=NCC(c2ccccc2)O1 (stereo not given) | 25 mg/kg
CCOC(=O)C=C(C)C | 11600 mg/kg
Cc1ccccc1OCC(O)CN(NC=NC(=O)c1ccccc1)C(C)C (stereo not given) | 2930 mg/kg
O=C=Nc1cccc(Cl)c1 | 4200 mg/kg
COS(C)(=O)=O | 225 mg/kg
O=C(Cc1ccc(-c2ccccc2)cc1)OCCF | 6 mg/kg
CN(C)CCCn1c2c(c3ccccc31)CCCCCC2 | 775 mg/kg
COP(=S)(Oc1ccc([N+](=O)[O-])cc1)OC(C)C (stereo not given) | 5 mg/kg
CCCSC(=O)Cl | 1130 mg/kg
CC(=O)C(N=Nc1ccc(-c2ccc(N=NC(C(C)=O)C(=O)Nc3ccc(C)cc3)c(Cl)c2)cc1Cl)C(=O)Nc1ccc(C)cc1 (stereo not given) | 2230 mg/kg
CCCCOC(=O)CC(C)=O | 11300 mg/kg
O=S1(=O)CC(Cl)C(Cl)C1 (stereo not given) | 482 mg/kg
CNC(=O)O[C@@H]1C[C@H](C)CC[C@H]1C(C)C | 250 mg/kg
COCCN1C=CC(=C2C(=O)c3ccccc3C2=O)C=C1 | 350 mg/kg
C=CCCCCCCCCC(=O)O | 2500 mg/kg
Cc1[nH]c(=O)c(C#N)cc1-c1ccc2nccn2c1 | 7800 mg/kg
NS(=O)(=O)c1cc(C(=O)O)cc(N2CCCC2)c1Oc1ccccc1 | 5600 mg/kg

Structure (SMILES) | LD50
CCCCC(CC)COP(=O)(OCC(CC)CCCC)OCC(CC)CCCC (stereo not given) | 37000 mg/kg
CCCCOC(=O)n1c(Br)nc(Br)c1Br | 44 mg/kg
O=C(O)Cc1ccc2c(c1)OCc1ccccc1C2=O | 110 mg/kg
O=C1C=Cc2cc(Br)ccc2C1=O | 3900 mg/kg
CC(C)Cc1cccc2c(CC(=O)O)cccc12 | 600 mg/kg
COCCOC | 5370 mg/kg
CCC1(CC)C(=O)C=CN(CN2CCNCC2)C1=O | 1340 mg/kg
CC(=O)Nc1cc(Cl)ccc1Cl | 4100 mg/kg
O=C1CCc2cc(C=CCN3CCN(c4cccc(Cl)c4)CC3)ccc2N1 | 500 mg/kg
ClC1=C(Cl)[C@]2(Cl)[C@@H]3C[C@@H](Cl)[C@@H](Cl)[C@@H]3[C@@]1(Cl)C2(Cl)Cl (racemic) | 500 mg/kg
CC(C)=CCN(CC=C(C)C)CCC(C(N)=O)c1cccc2ccccc12 (stereo not given) | 353 mg/kg
CC(C)Nc1ccccc1 | 560 mg/kg
COP(N)(=S)Oc1cc(Cl)c(Cl)cc1Cl (stereo not given) | 700 mg/kg
N#CCON=C(C#N)c1ccccc1 | 2280 mg/kg
NC(=S)C1CC=CCC1 (stereo not given) | 50 mg/kg
CC(C)CCCCCCO | 2980 mg/kg
O=c1[nH]c2ccccc2o1 | 700 mg/kg
CN(C)C(=O)Cl | 1000 mg/kg
CCN(CCC#N)c1cccc(C)c1 | 3710 mg/kg
NC(Cl)(Cl)c1nc(Cl)c(Cl)c(Cl)c1Cl | 1500 mg/kg
O=C(O)C=CC(=O)O | 8000 mg/kg and 3380 mg/kg
N#CCN(CC#N)N=O | 163 mg/kg
Cc1ccnc(C)c1 | 200 mg/kg
CCOP(=O)(OCC)C(SCC)(P(=O)(OCC)OCC)P(=O)(OCC)OCC | 7.25 mg/kg

Structure (SMILES) | LD50
CCCCC(O)c1ccccc1 (stereo not given) | 5430 mg/kg
O=C(OC1CCC(N2CCCCC2)CC1)c1ccc([N+](=O)[O-])cc1 (stereo not given) | 3250 mg/kg
O=C(O)COc1ccc2ccccc2c1 | 600 mg/kg
CCN(CC)C(=O)c1ccccc1C | 1210 mg/kg
CN1C(=O)CCS(=O)(=O)C1c1ccc(Cl)c(Cl)c1 (stereo not given) | 1050 mg/kg
Cc1ccn(C(=O)NCCCCNC(=O)n2ccc(C)n2)n1 | 4600 mg/kg
OC[C@H]1O[C@@H](O[C@@H]2[C@@H](CO)O[C@](O)(CO)[C@H]2O)[C@H](O)[C@@H](O)[C@H]1O | 18200 mg/kg
O=C1CCC(c2ccc(-n3ccnc3)cc2)=NN1 | 125 mg/kg
CC(c1ccccc1)C(C)(C)N (stereo not given) | 180 mg/kg
CNC(=O)OC1C2(C)CCC(C2)C1(C)C (stereo not given) | 500 mg/kg
Clc1ccc(Cn2c(CN3CCCC3)nc3ccccc32)cc1 | 1950 mg/kg
Cc1cc(-c2ccc(/N=N/c3c(N)c(C)cc(S(=O)(=O)O)c3N)c(C)c2)ccc1/N=N/c1ccc(O)c(C(=O)O)c1 | 6830 mg/kg
CCOC(=O)CN(C(=O)CCl)c1c(CC)cccc1CC | 2300 mg/kg
CNC(=O)Oc1cc(C)c(NC(=O)O)c(C)c1 | 71 mg/kg
O=c1c2ccccc2c2ccc3c4c(ccc1c24)c1ccc2c(=O)c4ccccc4c4nn3c1c24 | 13900 mg/kg
CC(CCc1ccccc1)NCC(O)c1ccc(O)c(C(N)=O)c1 (stereo not given) | 2110 mg/kg
CC(C)(C)NCCO | 1620 mg/kg
NC(N)=[Se] | 50 mg/kg
Nc1ccc(F)c(F)c1F | 699 mg/kg
c1cc(OCC2CO2)cc(OCC2CO2)c1 (stereo not given) | 2570 mg/kg
